Measured values as given in PMC11597202, “Novel Thiazole-Fused [4,5-g] or [5,4-g]Quinazolin-8-ones and Their Quinazoline Analogues: Synthesis and Biological Evaluation” (Pharmaceuticals, 2024).

Key:
Pim-1 = target: T1, Pim-1 (Homo sapiens, UniProt P11309); assay: ADP-Glo kinase inhibition assay, Pim-1; format: biochemical; settings: percentage of maximum activity of the DMSO control, mean n = 2, 10 µM ATP, read-out: Residual activity Pim-1; for remaining activity at 1 µM: 1 μM compound; for remaining activity at 10 µM: 10 μM compound
T1 construct: host or cells: bacteria
Experimental: (§1) Kinase enzymatic activities were assayed in 384-well plates using the ADP-Glo^TM assay kit (Promega, Madison, WI, USA) according to the recommendations of the manufacturer. This luminescent ADP detection assay was described by Zegzouti and co-workers and provides a homogeneous and high-throughput screening method to measure kinase activity by quantifying the amount of ADP produced during a kinase reaction. Briefly, the reactions were carried out in a final volume of 6 µL for 30 min at 30 °C in an appropriate kinase buffer (10 mM MgCl2, 1 mM EGTA, 1 mM DTT, 25 mM Tris-HCl pH 7.5, 50 µg/mL heparin), with peptide or protein as substrate in the presence of 10 µM ATP. Peptide substrates were obtained from ProteoGenix (Schiltigheim, France) or Sigma for Histone H1, Poly (L-glutamic acid–L-tyrosine) sodium salt, Casein and MBP. After that, 6 µL of ADP-Glo^TM Kinase Reagent was added to stop the kinase reaction. After an incubation time of 50 min at room temperature (rt), 12 µL of Kinase Detection Reagent was added for one hour at rt. The transmitted signal was measured using the Envision (PerkinElmer, Waltham, MA, USA) microplate luminometer and expressed as Relative Light Units (RLUs). Kinase activities are expressed as percentages of remaining kinase activities detected after treatment with 1 or 10 µM of the tested compounds. The maximum kinase activity was measured in the absence of inhibitor but with an equivalent dose of DMSO (solvent of the tested compounds).
(§2) 3. Kinase inhibition assays
(§3) Kinase enzymatic activities were assayed in 384-well plates using the ADP-GloTM assay kit (Promega, Madison, WI) according to the recommendations of the manufacturer. This luminescent ADP detection assay was described by Zegzouti and co-workers and provides a homogeneous and high-throughput screening method to measure kinase activity by quantifying the amount of ADP produced during a kinase reaction. Briefly, the reactions were carried out in a final volume of 6 µl for 30 min at 30°C in appropriate kinase buffer (10 mM MgCl2, 1 mM EGTA, 1 mM DTT, 25 mM Tris-HCl pH 7.5, 50 µg/mL heparin), with peptide or protein as substrate in the presence of 10 µM ATP. Peptide substrates were obtained from ProteoGenix (Schiltigheim, France) or Sigma for Histone H1, Poly (L-glutamic acid – L-tyrosine) sodium salt, Casein and MBP. After that, 6 µL of ADP-GloTM Kinase Reagent was added to stop the kinase reaction. After an incubation time of 50 min at room temperature (rt), 12 µL of Kinase Detection Reagent was added for 1 h at rt. The transmitted signal was measured using the Envision (PerkinElmer, Waltham, MA) microplate luminometer and expressed in Relative Light Unit (RLU). Kinase activities are expressed in percentages of remaining kinase activities detected after treatment with 1 or 10 µM of the tested compounds. The maximal kinase activity is measured in the absence of inhibitor but with an equivalent dose of DMSO (solvent of the tested compounds).
(§4) Table. Human protein kinases tested in the panel: CDK9, HASPIN, PIM1, GSK3b, CK1ε, JAK3, CLK1 […]
(§5) Protein Kinase Enzyme Description Substrate1
(§6) (Family) (Working concentration)
(§7) CDK9/CyclinT Human, recombinant, expressed by Peptide:
(§8) (CMGC) baculovirus in Sf9 insect cells […]
(§9) CLK1 Human, recombinant, expressed by Peptide: […]
(§10) (CMGC) baculovirus in Sf9 insect cells (57.3µM)
(§11) DYRK1A Human, recombinant, expressed by Peptide: […]
(§12) (CMGC) baculovirus in Sf9 insect cells (10.7µM)
(§13) PIM1 Human proto-oncogene, recombinant, Peptide: […]
(§14) (CAMK) expressed in bacteria (630 µM)
(§15) GSK3 Human, recombinant, expressed by Peptide:
(§16) (CMGC) baculovirus in Sf9 insect cells […]pEDEEE 3
(§17) HASPIN Human, kinase domain, amino acids 470 to Histone H3 peptide (1-21):
(§18) (Other) 798, recombinant, expressed in bacteria […] (8µM)
(§19) CK1ε Human, recombinant, expressed by Peptide: […]pAYSITA 2
(§20) (CK1) baculovirus in Sf9 insect cells (170µM)
(§21) JAK3 Human, recombinant, expressed by Peptide: […]
(§22) (TK) baculovirus in Sf9 insect cells (94µM) […]

Haspin = target: T2, Haspin (Homo sapiens, UniProt Q8TF76); assay: ADP-Glo kinase inhibition assay, Haspin; format: biochemical; settings: percentage of maximum activity of the DMSO control, mean n = 2, 10 µM ATP, read-out: Residual activity Haspin; for remaining activity at 1 µM: 1 μM compound; for remaining activity at 10 µM: 10 μM compound
T2 construct: amino acids 470 to Histone H3 peptide (1-21): (Other) 798, recombinant; host or cells: bacteria
T2 sequence (Q8TF76 470-798): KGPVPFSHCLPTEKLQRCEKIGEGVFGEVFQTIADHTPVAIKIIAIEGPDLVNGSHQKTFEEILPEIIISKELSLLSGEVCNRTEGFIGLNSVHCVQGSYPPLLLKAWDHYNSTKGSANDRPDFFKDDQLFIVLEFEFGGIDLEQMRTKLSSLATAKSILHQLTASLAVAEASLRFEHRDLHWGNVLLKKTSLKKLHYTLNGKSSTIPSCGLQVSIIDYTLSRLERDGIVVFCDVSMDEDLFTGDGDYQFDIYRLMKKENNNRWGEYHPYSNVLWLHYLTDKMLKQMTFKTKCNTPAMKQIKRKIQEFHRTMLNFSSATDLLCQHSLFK
Experimental: as §1, §2, §3, §4, §5, §6, §7, §8, §9, §10, §11, §12, §13, §14, §15, §16, §17, §18, §19, §20, §21, §22

T1 sequence (P11309 whole entry): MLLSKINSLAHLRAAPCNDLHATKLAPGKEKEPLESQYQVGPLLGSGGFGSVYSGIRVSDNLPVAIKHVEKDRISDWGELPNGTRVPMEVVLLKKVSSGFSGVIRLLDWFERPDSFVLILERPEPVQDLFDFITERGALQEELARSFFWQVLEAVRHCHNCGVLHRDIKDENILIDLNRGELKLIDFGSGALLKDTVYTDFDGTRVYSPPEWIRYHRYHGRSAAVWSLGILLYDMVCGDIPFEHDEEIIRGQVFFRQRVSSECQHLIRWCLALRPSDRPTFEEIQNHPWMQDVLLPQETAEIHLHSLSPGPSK

remaining activity at 1 µM (Pim-1) [%] | remaining activity at 10 µM (Pim-1) [%] | remaining activity at 1 µM (Haspin) [%] | remaining activity at 10 µM (Haspin) [%] | Structure (SMILES)
74 | 105 | 80 | 88 | COC(=N)c1nc2cc3ncnc(Nc4ccc(OC)cc4F)c3cc2s1 [Compound 15b, Methyl 8-[(2-fluoro-4-methoxyphenyl)amino]thiazolo[5,4-g]quinazoline-2-carbimidate]
71 | 113 | 83 | 66 | COC(=N)c1nc2cc3c(Nc4ccc(OC)cc4F)ncnc3cc2s1 [Compound 15a, Methyl 8-[(2-fluoro-4-methoxyphenyl)amino]thiazolo[4,5-g]quinazoline-2-carbimidate]

Further lines, the compound ahead of its results:

Structure (SMILES) | remaining activity at 1 µM (Pim-1) [%] | remaining activity at 10 µM (Pim-1) [%] | remaining activity at 1 µM (Haspin) [%] | remaining activity at 10 µM (Haspin) [%]
COC(=N)c1nc2ccc3ncn(Cc4ccccc4)c(=O)c3c2s1 [Compound I, methyl 8-benzyl-9-oxo-8,9-dihydrothiazolo[5,4-f]quinazoline-2-carbimidate, reference compound] | 79 | 77 | 60 | 45
COC(=N)c1nc2cc3c(=O)n(Cc4ccccc4)cnc3cc2s1 [Compound 6a, Methyl 7-benzyl-8-oxo-7,8-dihydrothiazolo[4,5-g]quinazoline-2-carbimidate] | 80 | 133 | 89 | 105
COC(=N)c1nc2cc3ncn(Cc4ccccc4)c(=O)c3cc2s1 [Compound 6b, Methyl 7-benzyl-8-oxo-7,8-dihydrothiazolo[5,4-g]quinazoline-2-carbimidate] | 90 | 78 | 95 | 82
COC(=N)c1nc2ccc3ncnc(Nc4ccc(OC)cc4F)c3c2s1 [Compound II, methyl 9-[(2-fluoro-4-methoxyphenyl)amino]thiazolo[5,4-f]quinazoline-2-carbimidate, reference compound] | 52 | 32 | 31 | 8
COC(=N)c1nc2ccc3c(=O)n(Cc4ccccc4)cnc3c2s1 [Compound 6d, Methyl 7-benzyl-6-oxo-6,7-dihydrothiazolo[4,5-h]quinazoline-2-carbimidate] | 92 | 94 | 82 | 51
COC(=N)c1nc2c(ccc3c(=O)n(Cc4ccccc4)cnc32)s1 [Compound 6c, Methyl 7-benzyl-6-oxo-6,7-dihydrothiazolo[5,4-h]quinazoline-2-carbimidate] | 74 | 86 | 39 | 12
